In patent US20200281243A1, “DIETARY PRODUCT” (CANCER RESEARCH TECHNOLOGY LTD, priority 2017, published 2020):

Key:
4T1-T cells = experiment: Orthotopic injection of Asns-silenced or -expressing 4T1-T cells into NSG mice; format: in vivo, mouse; conditions: Asns-silenced 4T1 cells orthotopic; L-asparaginase treated mice
Description: (§1) All mouse experiments were approved by the Cold Spring Harbor Animal Care and Use Committee. The maximal permitted tumour size of 20 mm in any direction was never exceeded. All mouse injections were carried out with 6-8-week-old female NOD-SCID-112rg^−/− (NSG) mice (JAX). Balb/c mice were not used in this study as the different clonal cell lines have variable GFP levels due to the lentiviral barcode vector. Tail vein injections were carried out using 5×10^5 mouse mammary tumor cells, which were re-suspended in 100 ul of PBS and injected via tail vein. Orthotopic injections were performed using 1×10^5 mouse mammary tumor cells or 5×10^5 MDA-MB-231 cells. For this, cells were re-suspended in a 1:1 mix of PBS and growth factor reduced Matrigel (BD Biosciences). A volume of 20 ul was injected into the mammary gland #4 for mouse mammary tumor cells and a volume of 40 ul was injected for MDA-MB-231 cells. Primary tumor volume was measured using the formula V=½(L×W^2), where L is length and W is width of the primary tumor. For L-asparaginase studies, mice were administered 200 ul of 60U of L asparaginase 5× per week through intraperitoneal injections. […]
(§2) For each lung, five-micron sections were prepared and stained with a standard H&E protocol. Lung metastatic burden was determined by counting individual lung nodules on one section.

[1] = Metabolite profiling of mammary gland, serum and lungs by LC-MS/MS; format: in vivo, mouse; conditions: L-asparaginase treated animals
Description: as §1, with “tumor.” for “tumor. For L-asparaginase studies, mice were administered 200 ul of 60U of L asparaginase 5× per week through intraperitoneal injections.”
Dried-down extracts were re-suspended in 25 ul HPLC-grade water, and 1 ul was analyzed using hydrophilic interaction chromatography (HILIC) coupled to tandem mass spectrometry analysis (LC-MS/MS). […] Metabolite differences were analyzed by normalizing samples to total peak area and comparing replicates for each group using one-way ANOVA with multiple comparisons.

solid tumours = conditions: Tallal et al. 1970; cited from earlier work
Twist1 and E-cadherin = experiment: IHC staining for Twist1 and E-cadherin in primary tumours; format: in vivo, mouse; conditions: primary tumours of mice treated with L-asparaginase
Description: as §1, with “A volume of 20 ul was injected into the mammary gland #4 for mouse mammary tumor cells and a volume of 40 ul was injected for MDA-MB-231 cells.” left out, “tumor.” for “tumor. For L-asparaginase studies, mice were administered 200 ul of 60U of L asparaginase 5× per week through intraperitoneal injections.”
For immunohistochemistry, primary tumors and lungs were processed as previously described in Wagenblast et al. 2015. […] Ecadherin and Twist1 diaminobenzidine-stained (DAB) and hematoxylin stainings were quantified using ImageJ (NIH). For this, images were color deconvoluted according to Ruifrok et al. 2001 and the percent area of E-cadherin and Twist1 positive staining was measured.

[2] = Free amino acid quantification in blood serum using HPLC; format: in vivo, mouse; conditions: NSG mice; 60U L-asparaginase 5 times per week for 19 days
Description: as §1, with “tumor.” for “tumor. For L-asparaginase studies, mice were administered 200 ul of 60U of L asparaginase 5× per week through intraperitoneal injections.”
Free amino acids were quantified in cultured cells and blood serum. […] Each sample was quantified in triplicates using High Performance Liquid Chromatography (HPLC) and a flourometric detector. For each replicate, nanomoles of each amino acid was measured. […]

parental 4T1 cells = experiment: Orthotopic injection of parental 4T1 cells into NSG mice; format: in vivo, mouse; conditions: parental 4T1 orthotopic, 60U L-asparaginase 5 times per week for 19 days vs PBS
Description: as §1, §2

4T1 cells [3] = experiment: CellTrace Violet proliferation assay, parental 4T1 cells; format: cell-based, mouse; conditions: asparagine supplementation, 24 hours
Description: (§3) For the mCherry competition assay, shRNA-transduced mCherry-positive cells were admixed with untransduced cells. mCherry fluorescence was quantified on the LSR II flow cytometer (BD Biosciences). The proliferation assay was carried out using the CellTrace Violet Cell Proliferation Kit (Thermo Fisher Scientific). For FIG. 3b and FIG. 9e, 4T1 and MDA-MB-231 cells were cultured in media containing 100× concentration of the specified amino acid (relative to the concentration in 1×NEAA) for 2 days or 3 days, respectively, before starting the proliferation assay. Cells were stained with CellTrace violet and then trypsinized and re-suspended in media. After 24 hours, cells were collected in order to quantify violet fluorescence intensity using the SH800 flow cytometer (Sony).

EMT-up genes = experiment: RNAseq of EMT-up genes; format: cell-based, mouse; conditions: parental 4T1 cells grown in asparagine supplemented media
MDA-MB-231 cells = experiment: CellTrace Violet proliferation assay, MDA-MB-231 cells; format: cell-based, human; conditions: asparagine supplementation, 24 hours
Description: as §3

EMT-up proteins = experiment: iTRAQ proteomic profiling of EMT-up proteins; format: cell-based, mouse; conditions: parental 4T1 cells; media supplemented with asparagine
Text: Cells were washed in ice cold PBS and harvested for iTRAQ quantitative proteomics as previously described in Ross et al. 2004. Three replicates were utilized for each cell line.

4T1 cells [4] = experiment: Matrigel invasion assay, parental 4T1 cells; format: cell-based, mouse; conditions: media supplemented with asparagine (100× of 1×NEAA, 2 days), 24 h matrigel invasion
Description: (§4) The in vitro invasive capacity of cells was measured using 6-well BioCoat Matrigel invasion plates. For parental 4T1 cells, 1×10^6 cells were plated on individual wells, for 4T1-T cells, 8×10^5 cells were plated on individual wells and for MDA-MB-231 cells, 5×10^5 cells were used per individual well. Cells were resuspended in media without serum and cells invaded into media with 5% fetal bovine serum and 5% fetal calf serum. For FIG. 3b and FIG. 9e, 4T1 and MDA-MB-231 cells were cultured in media containing 100× concentration of the specified amino acid (relative to the concentration in 1×NEAA) for 2 days or 3 days, respectively, before starting the invasion assay. After 24 h, non-invaded cells were removed and the invasion wells were washed in PBS, fixed in 2% glutalaldehyde for 2 min and stained with 0.5% crystal violet for 10 min. The wells were washed in distilled H2O, air-dried and scanned using the Odyssey infrared scanner. The signal was quantified using ImageJ (NIH).

[5] = tested on: Asns-silenced 4T1-T cells; experiment: Matrigel invasion assay, Asns-silenced cells; format: cell-based, mouse; conditions: media supplemented with asparagine
Description: as §4

[6] = tested on: Asns-silenced 4T1-T cells; experiment: mCherry competition assay, Asns-silenced cells; format: cell-based, mouse; conditions: media supplemented with asparagine
Description: as §3

Compound	primary tumour volume (4T1-T cells)	resultant metastases (4T1-T cells)	asparagine in the serum (mass spectrometry) [1]	treating solid tumours (solid tumours)	Twist1 and E-cadherin expression (IHC) (Twist1 and E-cadherin)	serum asparagine (HPLC) [2]	primary tumour volumes (parental 4T1 cells)	metastatic burden (parental 4T1 cells; lung)	growth (4T1 cells [3])	mRNA levels of EMT-up genes (EMT-up genes)	growth (MDA-MB-231 cells)	expression of EMT-up proteins (EMT-up proteins)	increase in invasiveness (4T1 cells [4])	capacity to invade [5]	capacity to grow [6]
L-asparaginase	reduction	nearly undetectable	nearly undetectable	ineffective	significant expression change	undetectable	no significant difference	significant reduction	–	–	–	–	–	–	–
NC(=O)C[C@H](N)C(=O)O [asparagine]	–	–	–	–	–	–	–	–	not impacted	increased	not impacted	increased in expression	approximately 2 fold	increased	increased
